Laboratory results: the supplement of paper PMC10307832

Experiments:
Experiment in all cases: relative viability (nuclei count vs DMSO), 5 days (fraction); higher = more cells survive
BAY61-3606 + Luminespib = compound: COC1=C(C=C(C=C1)C2=CC3=NC=CN3C(=N2)NC4=C(C=CC=N4)C(=O)N)OC [BAY61-3606] + CCNC(=O)c1noc(-c2cc(C(C)C)c(O)cc2O)c1-c1ccc(CN2CCOCC2)cc1 [Luminespib] (partner 0.01 µM)
Outline: (§1)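 Medians of duplicate plates are given as relative viability. That measure is the nuclei count in treated wells divided by the count in vehicle wells. Counts were taken on 4× images of lung cancer cell lines in 1536-well plates, 5 days after pin-tool dosing the day after seeding with one drug alone or a fixed anchor-drug dose plus five library-drug doses (not always all listed) in √10 steps.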

Doxorubicin + Trametinib = compound: COc1cccc2c1C(=O)c1c(O)c3c(c(O)c1C2=O)C[C@@](O)(C(=O)CO)C[C@@H]3O[C@H]1C[C@H](N)[C@H](O)[C@H](C)O1 [Doxorubicin] + CC(=O)Nc1cccc(-n2c(=O)n(C3CC3)c(=O)c3c(Nc4ccc(I)cc4F)n(C)c(=O)c(C)c32)c1 [Trametinib] (partner 0.02 µM)
Outline: as §1

Doxorubicin + Linsitinib = compound: COc1cccc2c1C(=O)c1c(O)c3c(c(O)c1C2=O)C[C@@](O)(C(=O)CO)C[C@@H]3O[C@H]1C[C@H](N)[C@H](O)[C@H](C)O1 [Doxorubicin] + C[C@]1(O)C[C@@H](c2nc(-c3ccc4ccc(-c5ccccc5)nc4c3)c3c(N)nccn32)C1 [Linsitinib] (partner 1 µM)
Outline: as §1

Doxorubicin + Decitabine = compound: COc1cccc2c1C(=O)c1c(O)c3c(c(O)c1C2=O)C[C@@](O)(C(=O)CO)C[C@@H]3O[C@H]1C[C@H](N)[C@H](O)[C@H](C)O1 [Doxorubicin] + Nc1ncn([C@H]2C[C@H](O)[C@@H](CO)O2)c(=O)n1 [Decitabine] (partner 2 µM)
Outline: as §1

Row | Cell Line | relative viability (BAY61-3606 + Luminespib; first compound 0.02 µM) | relative viability (BAY61-3606 + Luminespib; first compound 0.06325 µM) | relative viability (BAY61-3606 + Luminespib; first compound 0.2 µM) | relative viability (BAY61-3606 + Luminespib; first compound 0.6325 µM) | relative viability (BAY61-3606 + Luminespib; first compound 2 µM) | relative viability (Doxorubicin + Trametinib; first compound 0.001 µM) | relative viability (Doxorubicin + Trametinib; first compound 0.003162 µM) | relative viability (Doxorubicin + Trametinib; first compound 0.01 µM) | relative viability (Doxorubicin + Trametinib; first compound 0.03162 µM) | relative viability (Doxorubicin + Trametinib; first compound 0.1 µM) | relative viability (Doxorubicin + Linsitinib; first compound 0.001 µM) | relative viability (Doxorubicin + Linsitinib; first compound 0.003162 µM) | relative viability (Doxorubicin + Linsitinib; first compound 0.01 µM) | relative viability (Doxorubicin + Linsitinib; first compound 0.03162 µM) | relative viability (Doxorubicin + Linsitinib; first compound 0.1 µM) | relative viability (Doxorubicin + Decitabine; first compound 0.001 µM) | relative viability (Doxorubicin + Decitabine; first compound 0.003162 µM) | relative viability (Doxorubicin + Decitabine; first compound 0.01 µM) | relative viability (Doxorubicin + Decitabine; first compound 0.03162 µM) | relative viability (Doxorubicin + Decitabine; first compound 0.1 µM)
1 | 201T | 1.11 | 1.03 | 1.04 | 1.16 | 1.05 | 0.699 | 0.727 | 0.709 | 0.71 | 0.736 | 1 | 0.979 | 0.983 | 1.06 | 1.01 | 0.899 | 0.879 | 0.824 | 0.835 | 0.804
2 | A549 | – | – | – | – | – | – | – | – | – | – | – | 0.609 | 0.502 | 0.52 | 0.646 | 0.245 | 0.266 | 0.257 | 0.179 | 0.235
3 | A-427 | 0.842 | 0.928 | 0.86 | 0.965 | 0.808 | 0.782 | 0.708 | 0.743 | 0.534 | 0.418 | 1.11 | 1.15 | 1.11 | 1.17 | 1.16 | 0.585 | 0.625 | 0.553 | 0.456 | 0.4
4 | ABC-1 | 0.985 | 0.549 | 0.529 | 0.81 | 0.338 | – | – | – | – | – | 0.787 | 0.727 | 0.805 | 0.435 | 0.337 | 0.993 | 1.18 | 0.955 | 0.708 | 0.726
5 | BEN | 0.464 | 0.349 | 0.253 | 0.321 | 0.407 | 1.02 | 0.854 | 0.897 | 0.723 | 0.968 | 0.984 | 0.863 | 0.983 | 0.621 | 0.79 | 0.757 | 0.714 | 0.712 | 0.62 | 0.607
6 | CAL-12T | 0.49 | 0.439 | 0.209 | 0.789 | 0.187 | 0.381 | 0.352 | 0.33 | 0.225 | 0.125 | 0.783 | 0.858 | 0.762 | 0.432 | 0.48 | – | – | – | – | –
7 | Calu-6 | – | – | – | – | – | – | – | – | – | – | 0.944 | 0.972 | 0.814 | 0.627 | 0.702 | – | – | – | – | –
8 | ChaGo-K-1 | 0.611 | 0.606 | 0.587 | 0.554 | 0.436 | 0.984 | 0.858 | 0.661 | 0.926 | 0.86 | – | – | – | – | – | 0.524 | 0.557 | 0.482 | 0.473 | 0.527
9 | EBC-1 | – | – | – | – | – | – | – | – | – | – | 0.826 | 0.839 | 0.983 | 0.722 | 0.985 | – | – | – | – | –
10 | HCC-78 | – | – | – | – | – | 0.723 | 0.85 | 0.735 | 0.668 | 0.66 | 0.539 | 0.454 | 0.493 | 0.491 | 0.47 | 0.749 | 0.697 | 0.717 | 0.668 | 0.533
11 | HCC-366 | – | – | – | – | – | 0.334 | 0.363 | 0.353 | 0.227 | 0.325 | – | 0.392 | 0.706 | 0.52 | 0.512 | 0.334 | 0.35 | 0.281 | 0.309 | 0.334
12 | IA-LM | – | – | – | – | – | – | – | – | – | – | 0.519 | 0.706 | 0.575 | 0.573 | 0.74 | – | – | – | – | –
13 | NCI-H522 | 1.05 | 1.13 | 1.16 | 1.12 | 0.89 | 0.706 | 0.79 | 0.76 | 0.708 | 0.777 | – | – | – | – | – | 0.647 | 0.704 | 0.634 | 0.683 | 0.601
14 | NCI-H1299 | – | – | – | – | – | – | – | – | – | – | 0.949 | 0.942 | 1.03 | 0.943 | 0.999 | – | – | – | – | –
15 | NCI-H1563 | 0.528 | 0.558 | 0.531 | 0.54 | 0.502 | – | – | – | – | – | 1.07 | 0.935 | 0.898 | 0.634 | 0.587 | – | – | – | – | –
16 | NCI-H1623 | 0.604 | 0.439 | 0.422 | 0.607 | 0.52 | – | – | – | – | – | – | – | – | – | – | – | – | – | – | –
17 | NCI-H1648 | – | – | – | – | – | 0.474 | 0.429 | 0.555 | 0.492 | 0.541 | – | – | – | – | – | 0.604 | 0.451 | 0.599 | 0.421 | 0.495
18 | NCI-H1650 | 0.182 | 0.184 | 0.191 | 0.203 | 0.208 | 0.56 | 0.532 | 0.433 | 0.218 | 0.144 | – | – | – | – | – | 0.396 | 0.314 | 0.361 | 0.245 | 0.135
19 | NCI-H1703 | – | – | – | – | – | – | – | – | – | – | 0.481 | 0.676 | 0.695 | 0.64 | 0.474 | – | – | – | – | –
20 | NCI-H2170 | 0.796 | 0.717 | 0.761 | 0.852 | 0.506 | 0.98 | 0.953 | 0.887 | 0.756 | 0.959 | – | – | – | – | – | 0.498 | 0.472 | 0.435 | 0.396 | 0.491
21 | NCI-H2228 | 0.13 | 0.175 | 0.125 | 0.199 | 0.177 | 0.178 | 0.533 | 0.411 | 0.356 | 0.165 | 0.825 | 0.615 | 0.634 | 0.178 | 0.311 | – | – | – | – | –
22 | NCI-H2342 | 0.895 | 0.719 | 0.711 | 0.751 | 0.797 | 0.901 | 0.729 | 0.954 | 0.685 | 0.724 | – | – | – | – | – | 0.703 | 0.778 | 0.786 | 0.63 | 0.748
23 | SW 900 | 0.172 | 0.188 | 0.179 | 0.219 | 0.162 | – | 1.01 | 0.75 | 0.623 | 1.03 | – | – | – | – | – | – | 0.461 | 0.449 | 0.403 | 0.449
